These results are taken from patent publication US7517998B2, “Non nucleoside reverse transcriptase inhibitors” (priority 2004, dated 2009).

One assay deals with T1, K103NNY181C mutant reverse transcriptase (Human immunodeficiency virus type 1 group M subtype B, UniProt P04585, K690N/Y768C).
T1 construct: mutations that occur in the reverse transcriptase segment of the pol gene
Put plainly: Reverse transcriptase enzymatic assay (PicoGreen), K103N/Y181C mutant RT. The assay is classed as biochemical, HIV-1. The following applies: IC50 mut (nM), mutant (K103N/Y181C) reverse transcriptase, enzymatic assay of Example 24. An outline of the steps: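 HIV-1 RT (2.5 nM final) pre-incubated 15 min at room temperature with inhibitor, then reacted 50 min at 37 °C with poly rC 45 nM, dG15 4.5 nM, dGTP 3.6 μM in Tris/HCl pH 7.8, 1% DMSO. Final inhibitor 10 μM to 0.508 nM; EDTA-quenched, PicoGreen fluorescence read at 485/520 nm.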
As to `CC(C)C(=O)Nc1ccc(NC(=O)CSc2nnnn2-c2ccc(C(C)(C)C)cc2Cl)c(Cl)c1` [Compound 7010], the IC50 (usually the concentration that gives 50% inhibition) came out at 83 nM.
Compound `CC(C)(C)c1ccc(-n2nnnc2SCC(=O)Nc2ccc(NS(=O)(=O)c3ccccc3)cc2Cl)c(Cl)c1` [Compound 7003] displayed an IC50 of 607 nM.
On the same count and under the same terms, as for `CC(C)(C)c1ccc(-n2nnnc2SCC(=O)Nc2ccc(NC(=O)c3cccc(C(=O)O)c3)cc2Cl)c(Cl)c1` [Compound 7027], the figure is 134 nM; as for `CC(C)(C)c1ccc(-n2nnnc2SCC(=O)Nc2ccc(NC(=O)Cc3ccc[n+]([O-])c3)cc2Cl)c(Cl)c1` [Compound 7048], 97 nM.
Still for that read-out and setting: with `CC(C)(C)c1ccc(-n2nnnc2SCC(=O)Nc2ccc(NS(=O)(=O)Cc3ccccc3)cc2Cl)c(Cl)c1` [Compound 7004] the figure was 272 nM.

Still in this assay, the particulars now being: IC50 mut, K103N/Y181C mutant reverse transcriptase, enzymatic assay of Example 24.
In the case of `CC(C)(C#Cc1ccc(NC(=O)CSc2nnnn2-c2ccc(CC3CC3)cc2Cl)c(Cl)c1)OCCN1CCCC1` [Compound 4246], the IC50 was 212 nM.
The same measure, in the same setting: as for `CC(C)(N)C#Cc1ccc(NC(=O)CSc2nnnn2-c2cc(Br)ccc2Cl)c(Cl)c1` [Compound 4220], the figure is 97.5 nM.
`CC(C)(O)C#Cc1ccc(NC(=O)CSc2nnnn2-c2cc(Cl)c(C3CC3)cc2Cl)c(Cl)c1` [Compound 4070] returned an IC50 of 82.5 nM.
Same read-out and setting: with `CC(C)(C#Cc1ccc(NC(=O)CSc2nnnn2-c2cc(C(F)(F)F)ccc2Cl)c(Cl)c1F)C(=O)NCCN1CCCC1` [Compound 4160] the figure was 114 nM; with `CC(C)(C#Cc1ccc(NC(=O)CSc2nnnn2-c2ccc(C(C)(C)C)cc2Cl)c(Cl)c1)OCC(=O)NNC(N)=O` [Compound 4056], 26 nM.
On to `CC(C)Oc1ccc(Cl)c(-n2nnnc2SCC(=O)Nc2ccc(C#CC(C)(C)C(=O)O)cc2Cl)c1` [Compound 4187], for which the IC50 was 61.5 nM.
Still for that read-out and setting: as for `CC(C)(C#Cc1ccc(NC(=O)CSc2nnnn2-c2ccc(C(C)(C)C)cc2Cl)c(Cl)c1)OCC(=O)Nc1ccc(C(=O)O)cc1` [Compound 4045], the figure is 32 nM.
Still for that read-out and setting: with `CC(C)(C#Cc1ccc(NC(=O)CSc2nnnn2-c2ccc(C3CC3)cc2Cl)c(Cl)c1F)OCCN1CCC(F)(F)C1` [Compound 4217] the figure was 90.5 nM; with `CC(C)(C#Cc1ccc(NC(=O)CSc2nnnn2-c2cc(C3CC3)cc(C(F)(F)F)c2Cl)c(Cl)c1)C(=O)O` [Compound 4159], 136 nM.
On the same count and under the same terms, as for `CN(C)CCCC(=O)NC(C)(C)C#Cc1ccc(NC(=O)CSc2nnnn2-c2ccc(C3CC3)cc2Cl)c(Cl)c1F` [Compound 4156], the figure is 36.5 nM; as for `CC(C)(C#Cc1ccc(NC(=O)CSc2nnnn2-c2cc(CC3CC3)ccc2Cl)c(Cl)c1)C(=O)O` [Compound 4213], 32.5 nM.
`CC(C)(C#Cc1ccc(NC(=O)CSc2nnnn2-c2cc(Cl)ccc2Cl)c(Cl)c1)NC(=O)CN1CCNCC1` [Compound 4194]: the IC50 was 45 nM. This IC50 and that of the compound before are within 1.5-fold of each other.
For `CC(C)(N)C#Cc1ccc(NC(=O)CSc2nnnn2-c2cc(C3CC3)cc(C(F)(F)F)c2Cl)c(Cl)c1F` [Compound 4250], it took 51.5 nM to reach half-maximal inhibition (IC50).
Same read-out and setting: with `Cc1cc(C)c(-n2nnnc2SCC(=O)Nc2ccc(C#CC(C)(C)O)cc2Cl)c(Cl)c1` [Compound 4007] the figure was 38 nM; with `CN1CCN(CCOC(C)(C)C#Cc2ccc(NC(=O)CSc3nnnn3-c3ccc(C4CC4)cc3Cl)c(Cl)c2)CC1` [Compound 4105], 66.5 nM; with `CC(C)(C#Cc1ccc(NC(=O)CSc2nnnn2-c2ccc(C3CC3)cc2Cl)c(Cl)c1)C(=O)NCc1cc[n+]([O-])cc1` [Compound 4148], 11 nM.
Turning to `CN(C)CCCC(=O)NC(C)(C)C#Cc1ccc(NC(=O)CSc2nnnn2-c2cc(C(F)(F)F)ccc2Cl)c(Cl)c1` [Compound 4147], the IC50 turned out to be 52 nM.
Still for that read-out and setting: with `CC(=O)NC(C)(C)C#Cc1ccc(NC(=O)CSc2nnnn2-c2ccc(C3CC3)cc2Cl)c(Cl)c1` [Compound 4080] the figure was 8.45 nM; with `CCC(N)(C#Cc1ccc(NC(=O)CSc2nnnn2-c2ccc(C3CC3)cc2Cl)c(Cl)c1)CC` [Compound 4068], 38.5 nM; with `CC(C)(C#Cc1ccc(NC(=O)CSc2nnnn2-c2ccc(C(C)(C)C)cc2Cl)c(Cl)c1)OCC(=O)Nc1ccncc1` [Compound 4041], 35 nM.

The assay is the same for the next values; noted with them: IC50 mut, mutant reverse transcriptase, enzymatic assay of Example 24.
Regarding `COC(=O)Cc1cccc(-c2ccc(NC(=O)CSc3nnnn3-c3ccc(C)cc3Cl)c(Cl)c2)c1` [Compound 3002], half-maximal inhibition (IC50) was put at 120 nM.
In the case of `Cc1nnc(SCC(=O)Nc2ccc(-c3ccc(OCCN4CCCCC4)cc3)cc2Cl)n1-c1ccc(C2CC2)cc1Cl` [Compound 1013], it took 75 nM to reach half-maximal inhibition (IC50).
Same read-out and setting: with `CC(C)(C)c1ccc(-n2nnnc2SCC(=O)Nc2ccc(C(=O)Nc3ccc(C(=O)O)cc3)cc2Cl)c(Cl)c1` [Compound 6014] the figure was 34 nM; with `Cn1cc(NC(=O)COc2ccc(NC(=O)CSc3nnnn3-c3ccc(C(C)(C)C)cc3Cl)c(Cl)c2)cc1C(=O)O` [Compound 5029], 34 nM.
Still for that read-out and setting: with `CC(C)(C)c1ccc(-n2nnnc2SCC(=O)Nc2ccc(-c3ccc(OCCn4ccnc4)cc3)cc2Cl)c(Cl)c1` [Compound 2036] the figure was 67 nM; with `CSCCC(NC(=O)c1ccc(NC(=O)CSc2nnnn2-c2ccc(C(C)(C)C)cc2Cl)c(Cl)c1)C(=O)O` (centres unmarked) [Compound 6025], 41 nM; with `CC(C)(C)c1ccc(-n2nnnc2SCC(=O)Nc2ccc(-c3ccc(OCCN4CCCCC4)cc3)cc2Cl)c(Cl)c1` [Compound 2039], 28 nM.
`CN(CCc1cc[n+]([O-])cc1)C(=O)COc1ccc(NC(=O)CSc2nnnn2-c2ccc(C3CC3)cc2Cl)c(Cl)c1` [Compound 5041] came in with an IC50 of 132 nM.
Still for that read-out and setting: with `Cc1ccc(-n2nnnc2SCC(=O)Nc2ccc(-c3ccc(CC(=O)O)cc3)cc2[N+](=O)[O-])c(Cl)c1` [Compound 2011] the figure was 49 nM; with `Cc1cc(F)c(-n2nnnc2SCC(=O)Nc2ccc(-c3ccc(C(C)(C)C(=O)O)cc3)cc2Cl)c(Cl)c1` [Compound 2026], 48 nM.
On the same count and under the same terms, as for `CC(C)(C)c1ccc(-n2nnnc2SCC(=O)Nc2ccc(OCC(=O)NCc3ccc(N)cc3)cc2Cl)c(Cl)c1` [Compound 5026], the figure is 86 nM; as for `CC(C)(C)c1ccc(-n2nnnc2SCC(=O)Nc2ccc(S(=O)(=O)NCCc3ccccc3)cc2Cl)c(Cl)c1` [Compound 3024], 516 nM.
The same measure, in the same setting: with `CC(C)(C#Cc1ccc(NC(=O)CSc2nnc(C(F)(F)F)n2-c2ccc(C3CC3)cc2Cl)c(Cl)c1)NC(=O)c1cc[n+]([O-])cc1` [Compound 1018] the figure was 51 nM; with `Cc1nnc(SCC(=O)Nc2ccc(-c3ccc(OCCN4CCCC4)cc3)cc2Cl)n1-c1ccc(C2CC2)cc1Cl` [Compound 1014], 81 nM; with `CC(CC(=O)O)NC(=O)c1ccc(NC(=O)CSc2nnnn2-c2ccc(C(C)(C)C)cc2Cl)c(Cl)c1` (centres unmarked) [Compound 6015], 39 nM.
`Cc1ccc(-n2nnnc2SCC(=O)Nc2ccc(-c3cccc(CC(=O)O)c3)cc2Cl)c(Cl)c1` [Compound 3004] gave an IC50 of 93 nM. Against the preceding compound, the IC50 is about 2.4-fold higher.
The same measure, in the same setting: as for `CC(C)(C)c1ccc(-n2nnnc2SCC(=O)Nc2ccc(-c3ccc(/C=C/C(=O)O)s3)cc2Cl)c(Cl)c1` [Compound 3031], the figure is 15.5 nM; as for `CNC(=O)NS(=O)(=O)c1ccc(NC(=O)CSc2nnnn2-c2ccc(C3CC3)cc2Cl)c(Cl)c1` [Compound 3039], 268 nM; as for `CC(C)(C)c1ccc(-n2nnnc2SCC(=O)Nc2ccc(C(=O)Nc3ccc(O)cc3)cc2Cl)c(Cl)c1` [Compound 6013], 34 nM.
